The values that follow come from US5686486A, “4-hydroxy-benzopyran-2-ones and 4-hydroxy-cycloalkyl[b]pyran-2-ones useful to treat retroviral infections” (priority 1995, dated 1997).

Read-outs that look alike come from different tables or passages of the source.

Test [1] deals with T1, HIV-1 protease (Human immunodeficiency virus type 1 group M subtype B, UniProt P04585). Put plainly: biochemical. The conditions noted are these: for inhibition at 1 µM: read-out: HIV-1 Protease % Inhib, dose 1.000 uM; for inhibition at 10 µM: read-out: HIV-1 Protease % Inhib, dose 10.000 uM; for inhibition at 100 µM: read-out: HIV-1 Protease % Inhib, dose 100.000 uM; for inhibition at 0.41 µM: read-out: HIV-1 Protease % Inhib, dose 0.410 uM; for inhibition at 1.23 µM: read-out: HIV-1 Protease % Inhib, dose 1.230 uM; for inhibition at 3.7 µM: read-out: HIV-1 Protease % Inhib, dose 3.700 uM; for inhibition at 11 µM: read-out: HIV-1 Protease % Inhib, dose 11.000 uM; for inhibition at 33 µM: read-out: HIV-1 Protease % Inhib, dose 33.000 uM; for inhibition at 0.123 µM: read-out: HIV-1 Protease % Inhib, dose 0.123 uM; for inhibition at 0.37 µM: read-out: HIV-1 Protease % Inhib, dose 0.370 uM; for inhibition at 1.1 µM: read-out: HIV-1 Protease % Inhib, dose 1.100 uM; for inhibition at 3.3 µM: read-out: HIV-1 Protease % Inhib, dose 3.300 uM; for inhibition at 30 µM: read-out: HIV-1 Protease % Inhib, dose 30.000 uM. Put shortly:
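Biotinylated, FITC-labeled peptide substrate (20 μl of 0.2 μM) incubated with HIV-1 protease (10 μl of 0.1 μM) and compound in 0.1 M sodium acetate pH 5.5, 1.0 M NaCl, 0.05% NP-40, 1 h, room temperature, dark. Streptavidin beads then capture uncleaved substrate; filtered labeled product read by fluorescence, giving percent inhibition.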

Test [2] deals with T1, HIV-1 protease. Description: biochemical. Put shortly:
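Ki from two-fold serial inhibitor dilutions (24–48 concentrations) with 40 nM HIV-1 protease stock and 200 μM substrate stock, 90 min at room temperature; stopped with avidin beads. Reference inhibitor run in parallel; Ki by nonlinear least-squares fit.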

Regarding `CCC(c1cccc(NS(=O)(=O)CCN2C(=O)c3ccccc3C2=O)c1)c1c(O)c2ccccc2oc1=O` (centres unmarked) [Example 139, 2-(1,3-Dioxo-1,3-dihydro-isoindol-2-yl)-ethanesulfonic acid(3-(1-(4-hydroxy-2-oxo-2H-chromen-3-yl)-propyl)-phenyl)amide], on HIV-1 protease [1], the inhibition at 1 µM amounted to 36.6%, the inhibition at 10 µM was determined as 80.7% and the inhibition at 100 µM worked out at 99.2%. On HIV-1 protease [2] (HIV-1 FITC KI), this compound displayed an inhibition constant (Ki) of 500 nM.

As to `CCC(c1cccc(NS(=O)(=O)CCNC(=O)OC(C)(C)C)c1)c1c(O)c2ccccc2oc1=O` (centres unmarked) [Example 140, 2-(N-t-butyloxycarbonyl-amino)-ethanesulfonic acid (3-(1-(4-hydroxy-2-oxo-2H-chromen-3-yl)-propyl)-phenyl)-amide], at HIV-1 protease [1], the inhibition at 0.41 µM is less than 10%, the inhibition at 1.23 µM is 16.5%, the inhibition at 3.7 µM stood at 48.1% and the inhibition at 11 µM was 71.8%. For the same compound, at HIV-1 protease [1], the inhibition at 33 µM is 91.1% and the inhibition at 100 µM came out at 109%. This compound also registered a Ki on HIV-1 protease [2] (HIV-1 FITC KI) of 762 nM.

For `O=c1oc2ccccc2c(O)c1C(Cc1ccccc1)Cc1ccccc1` [Example 146, 3-(1-Benzyl-2-phenyl-ethyl)4-hydroxy-chromen-2-one], on HIV-1 protease [1], the inhibition at 1 µM stood at 54.4%, the inhibition at 10 µM turned out to be 92.7% and the inhibition at 100 µM was 98.6%. Also, affinity on HIV-1 protease [2] (HIV-1 FITC KI) was put at a Ki of 130 nM.

For `CCC(c1cccc(C(=O)NC(C(=O)NCc2ccccn2)C(C)CC)c1)c1c(O)c2ccccc2oc1=O` (centres unmarked) [Example 149, 3-(1-(4-Hydroxy-2-oxo-2H-chromen-3-yl)-propyl)-N-(2-methyl-1-(pyridin-2-ylmethylcarbomoyl)-butyl)-benzamide], at HIV-1 protease [1], the inhibition at 1 µM was 28.8%, the inhibition at 10 µM amounted to 99.2% and the inhibition at 100 µM came out at 97.3%. The affinity at HIV-1 protease [2] (HIV-1 FITC KI), expressed as Ki, was 405 nM.

Regarding `CC(C)(C)C(c1ccccc1)c1c(O)c2ccccc2oc1=O` (centres unmarked) [Example 152, 3-(2,2-Dimethyl-1-phenyl-propyl)-4-hydroxy-chromen-2-one], on HIV-1 protease [1], the inhibition at 0.41 µM was less than 10%, the inhibition at 1.23 µM was 14.2%, the inhibition at 3.7 µM was 35.5% and the inhibition at 11 µM stood at 73.7%. Moreover, on HIV-1 protease [1], the inhibition at 33 µM was determined as 102% and the inhibition at 100 µM came to 110%. On HIV-1 protease [2] (HIV-1 FITC KI), this compound returned a Ki of 1010 nM.

As for `CCC(c1ccccc1)c1c(O)c2ccc(OCCOCCOCCOC)cc2oc1=O` (centres unmarked) [Example 154], on HIV-1 protease [1], the inhibition at 1 µM worked out at 13.6%, the inhibition at 10 µM was 77.1% and the inhibition at 100 µM stood at 96%. This compound registered a Ki on HIV-1 protease [2] (HIV-1 FITC KI) of 520 nM.

For the compound `O=c1oc2ccccc2c(O)c1C1CCN(Cc2ccccc2)c2ccccc21` (centres unmarked) [Example 159, 3-(1-Benzyl-1,2,3,4-tetrahydro-quinolin4-yl)-4-hydroxy-chromin-2-one], on HIV-1 protease [1], the inhibition at 0.41 µM is less than 10%, the inhibition at 1.23 µM worked out at 14.4%, the inhibition at 3.7 µM was found to be 39.8% and the inhibition at 11 µM worked out at 74.3%. Moreover, on HIV-1 protease [1], the inhibition at 33 µM was determined as 84.2% and the inhibition at 100 µM amounted to 91.1%. Moreover, on HIV-1 protease [2] (HIV-1 FITC KI), the Ki amounted to 2400 nM.

Take `CC(CO)C1CCCCCc2c1oc(=O)c(C(c1ccccc1)C1CC1)c2O` (centres unmarked) [Example 161, 3-(Cyclopropylphenylmethyl)-5,6,7,8,9,10-hexahydro-4-hydroxy-10-(2-hydroxy-1-methylethyl)-2H-cyclooct[b]pyran-2-one]: at HIV-1 protease [1], the inhibition at 0.123 µM was 20%, the inhibition at 0.37 µM was found to be 67.3%, the inhibition at 1.1 µM stood at 98.7% and the inhibition at 3.3 µM came to 104%. Moreover, on HIV-1 protease [1], the inhibition at 10 µM came to 106% and the inhibition at 30 µM came out at 111%. For the same compound, the Ki on HIV-1 protease [2] (read-out: HIV-1 FITC KI) was determined as 32 nM.

`CC(O)CC1CCCCCc2c1oc(=O)c(C(c1ccccc1)C1CC1)c2O` (centres unmarked) [Example 162, 3-(Cyclopropylphenylmethyl)-5,6,7,8,9,10-hexahydro-4-hydroxy-10-(2-hydroxypropyl)-2H-cycloocta[b]pyran-2-one]: on HIV-1 protease [1], the inhibition at 0.123 µM stood at 14.8%, the inhibition at 0.37 µM stood at 56%, the inhibition at 1.1 µM came out at 92.2% and the inhibition at 3.3 µM came to 99.3%. Besides, on HIV-1 protease [1], the inhibition at 10 µM is 102% and the inhibition at 30 µM came to 109%. The Ki at HIV-1 protease [2] (read-out: HIV-1 FITC KI) was found to be 40 nM.

On to `O=c1oc2c(c(O)c1C(c1ccccc1)C1CC1)CCCCCC2CC1CO1` (centres unmarked) [Example 163, 3-(Cyclopropylphenylmethyl)-5,6,7,8,9,10-hexahydro-4-hydroxy-10-(oxiranylmethyl)-2H-cycloocta[b]pyran-2-one], for which, on HIV-1 protease [1], the inhibition at 0.123 µM came to 17.7%, the inhibition at 0.37 µM was 56%, the inhibition at 1.1 µM came out at 84.2% and the inhibition at 3.3 µM is 98.6%. On HIV-1 protease [1], the inhibition at 10 µM was 107% and the inhibition at 30 µM is 105%. Moreover, on HIV-1 protease [2] (read-out: HIV-1 FITC KI), the Ki came to 34 nM.

For the compound `Nc1cccc(C(c2c(O)c3c(oc2=O)CCCCCC3)C2CC2)c1` (centres unmarked) [Example 164, 3-[(3-Aminophenyl)cyclopropylmethyl]-5,6,7,8,9,10-hexahydro-4-hydroxy-2H-cycloocta[b]pyran-2-one], on HIV-1 protease [1], the inhibition at 0.37 µM was 14.6%, the inhibition at 1.1 µM stood at 46.2%, the inhibition at 3.3 µM amounted to 87.3% and the inhibition at 10 µM came out at 99.7%. For the same compound, the inhibition at 30 µM on HIV-1 protease [1] was determined as 102%. Besides, the inhibition constant Ki on HIV-1 protease [2] (read-out: HIV-1 FITC KI) stood at 78 nM.

As for `CC(C)(C)OC(=O)NCCC(=O)Nc1cccc(C(c2c(O)c3ccccc3oc2=O)C2CC2)c1` (centres unmarked) [Example 165, Carbamic acid, [3-[[3-[cyclopropyl(4-hydroxy-2-oxo-2H-1-benzopyran-3-yl)methyl]phenyl]amino]-3-oxopropyl]-, 1,1-dimethylethyl ester], at HIV-1 protease [1], the inhibition at 0.41 µM worked out at 61.7%, the inhibition at 1.23 µM was 86.7%, the inhibition at 3.7 µM turned out to be 98.4% and the inhibition at 11 µM worked out at 106%. For the same compound, at HIV-1 protease [1], the inhibition at 33 µM came to 111% and the inhibition at 100 µM was determined as 114%. Further, at HIV-1 protease [2] (HIV-1 FITC KI), the inhibition constant Ki came to 86 nM.

For the compound `COc1ccc2c(O)c(C(c3cccc(NC(=O)CCNC(=O)OC(C)(C)C)c3)C3CC3)c(=O)oc2c1` (centres unmarked) [Example 167, Carbamic acid, [3-[[3-[cyclopropyl(4-hydroxy-7-methoxy-2-oxo-2H-1-benzopyran-3-yl)methyl]phenyl]amino]-3-oxopropyl]-, 1,1-dimethylethyl ester], on HIV-1 protease [1], the inhibition at 0.41 µM came to 83.2%, the inhibition at 1.23 µM worked out at 99.5%, the inhibition at 3.7 µM is 113% and the inhibition at 11 µM was 114%. At HIV-1 protease [1], the inhibition at 33 µM turned out to be 114% and the inhibition at 100 µM came to 116%. On HIV-1 protease [2] (HIV-1 FITC KI), the inhibition constant (Ki) was 28 nM.

On to `O=C(CCn1ccc2ccccc21)Nc1cccc(C(c2c(O)c3ccccc3oc2=O)C2CC2)c1` (stereo not drawn) [Example 168, Coumarin, 4-hydroxy-3-(α-(3-((3-(1H-indol-1-yl)-1-oxopropyl)amino)phenyl)cyclopropylmethyl)], for which, on HIV-1 protease [1], the inhibition at 0.37 µM was 12.4%, the inhibition at 1.1 µM amounted to 46.4%, the inhibition at 3.3 µM was found to be 74.9% and the inhibition at 10 µM came to 94.7%. On HIV-1 protease [1], the inhibition at 30 µM is 107%. This compound had a Ki on HIV-1 protease [2] (HIV-1 FITC KI) of 135 nM.

As to `CCC(=O)C1CCCCCc2c1oc(=O)c(C(c1ccccc1)C1CC1)c2O` (centres unmarked) [Example 174, 3-(Cyclopropylphenylmethyl)-5,6,7,8,9,10-hexahydro-4-hydroxy-10-(1-oxopropyl)-2H-cycloocta[b]pyran-2-one], on HIV-1 protease [1], the inhibition at 0.123 µM amounted to 11.4%, the inhibition at 0.37 µM stood at 35.8%, the inhibition at 1.1 µM was 75% and the inhibition at 3.3 µM amounted to 95.9%. Further, at HIV-1 protease [1], the inhibition at 10 µM amounted to 104% and the inhibition at 30 µM worked out at 97.8%. Further, the Ki at HIV-1 protease [2] (read-out: HIV-1 FITC KI) was 35 nM.

In the case of `O=c1oc2c(c(O)c1C(c1ccccc1)C1CC1)CCCCCC2C(O)C1CC1` (centres unmarked) [Example 176, 10-(Cyclopropylhydroxymethyl)-3-(cyclopropylphenylmethyl)-5,6,7,8,9, 10-hexahydro-4-hydroxy-2H-cycloocta[b]pyran-2-one], at HIV-1 protease [1], the inhibition at 0.37 µM is 27.3%, the inhibition at 1.1 µM came to 82.6%, the inhibition at 3.3 µM is 104% and the inhibition at 10 µM is 109%. For the same compound, on HIV-1 protease [1], the inhibition at 30 µM came out at 118%. Besides, on HIV-1 protease [2] (read-out: HIV-1 FITC KI), the inhibitory constant (Ki) stood at 37 nM.

With `COCC1CCCCCc2c1oc(=O)c(C(c1ccccc1)C1CC1)c2O` (centres unmarked) [Example 177, 3-(Cyclopropylphenylmethyl)-5,6,7,8,9,10-hexahydro4-hydroxy-10-(methoxymethyl)-2H-cycloocta[b]pyran-2-one], on HIV-1 protease [1], the inhibition at 0.37 µM amounted to 16.9%, the inhibition at 1.1 µM was determined as 53.9%, the inhibition at 3.3 µM stood at 88.9% and the inhibition at 10 µM was determined as 104%. In addition, at HIV-1 protease [1], the inhibition at 30 µM turned out to be 104%. Moreover, the Ki at HIV-1 protease [2] (read-out: HIV-1 FITC KI) was found to be 55 nM.

`COCCC1CCCCCc2c1oc(=O)c(C(c1ccccc1)C1CC1)c2O` (centres unmarked) [Example 178, 3-(Cyclopropylphenylmethyl)-5,6,7,8,9,10-hexahydro-4-hydroxy-10-(2-methoxyethyl)-2H-cycloocta[b]pyran-2-one]: on HIV-1 protease [1], the inhibition at 0.123 µM was 16.2%, the inhibition at 0.37 µM was determined as 45.5%, the inhibition at 1.1 µM came to 86.4% and the inhibition at 3.3 µM stood at 98.8%. Moreover, at HIV-1 protease [1], the inhibition at 10 µM came out at 105% and the inhibition at 30 µM turned out to be 103%. Further, at HIV-1 protease [2] (read-out: HIV-1 FITC KI), the Ki is 27 nM.

As a reminder, the Ki is the equilibrium dissociation constant of an inhibitor or competing ligand from its target.
